Reference: ChEMBL document CHEMBL5143590, “Dihydropyrimidinone imidazoles as unique structural antibacterial agents for drug-resistant gram-negative pathogens” (Eur J Med Chem, 2022)
Converted amounts (≈) assume the structure as drawn. The source made the active and inactive calls. The calls are words filed in the database; no cut-off is given here.

Legend:
Acinetobacter baumannii [1] = experiment: Anti- biofilm activity against Acinetobacter baumannii assessed as inhibition of biofilm formation at 1 time MIC relative to control; type: functional; design: scale not given: the % may be the effect or the level left
Calf thymus DNA [2] = experiment: Binding affinity to calf thymus DNA assessed as reduction in fluorescence intensity of DNA-acridine orange complex by acridine orange dye based fluorescence analysis; type: nucleic-acid assay; details: Bos taurus
Staphylococcus aureus [3] = experiment: Antibacterial activity against methicillin-resistant Staphylococcus aureus N315 assessed as inhibition of bacterial growth by two fold serial dilution method; type: functional
Enterococcus faecalis = experiment: Antibacterial activity against Enterococcus faecalis assessed as inhibition of bacterial growth by two fold serial dilution method; type: functional
Staphylococcus aureus [4] = experiment: Antibacterial activity against Staphylococcus aureus assessed as inhibition of bacterial growth by two fold serial dilution method; type: functional
Staphylococcus aureus [5] = experiment: Antibacterial activity against Staphylococcus aureus 25923 assessed as inhibition of bacterial growth by two fold serial dilution method; type: functional
Staphylococcus aureus [6] = experiment: Antibacterial activity against Staphylococcus aureus 29213 assessed as inhibition of bacterial growth by two fold serial dilution method; type: functional
Klebsiella pneumoniae [7] = experiment: Antibacterial activity against Klebsiella pneumoniae assessed as inhibition of bacterial growth by two fold serial dilution method; type: functional
Escherichia coli [8] = experiment: Antibacterial activity against Escherichia coli assessed as inhibition of bacterial growth by two fold serial dilution method; type: functional
Escherichia coli [9] = experiment: Antibacterial activity against Escherichia coli 25922 assessed as inhibition of bacterial growth by two fold serial dilution method; type: functional
Pseudomonas aeruginosa [10] = experiment: Antibacterial activity against Pseudomonas aeruginosa assessed as inhibition of bacterial growth by two fold serial dilution method; type: functional
Pseudomonas aeruginosa [11] = experiment: Antibacterial activity against Pseudomonas aeruginosa 27853 assessed as inhibition of bacterial growth by two fold serial dilution method; type: functional
Acinetobacter baumannii [12] = experiment: Antibacterial activity against Acinetobacter baumannii assessed as inhibition of bacterial growth by two fold serial dilution method; type: functional
Acinetobacter baumannii [13] = experiment: Bactericidal activity against Acinetobacter baumannii assessed as reduction in bacterial growth at MIC and measured within 2 hrs by time-kill kinetic assay; type: functional
Klebsiella pneumoniae [14] = experiment: Bactericidal activity against Klebsiella pneumoniae assessed as reduction in bacterial growth at MIC and measured within 2 hrs by time-kill kinetic assay; type: functional
Acinetobacter baumannii [15] = experiment: Bactericidal activity against Acinetobacter baumannii assessed as reduction in bacterial growth at 4 times MIC and measured within 2 hrs by time-kill kinetic assay relative to control; type: functional; design: scale not given: the % may be the effect or the level left
Klebsiella pneumoniae [16] = experiment: Bactericidal activity against Klebsiella pneumoniae assessed as reduction in bacterial growth at 4 times MIC and measured within 2 hrs by time-kill kinetic assay relative to control; type: functional; design: scale not given: the % may be the effect or the level left
Acinetobacter baumannii [17] = experiment: Anti- biofilm activity against Acinetobacter baumannii assessed as inhibition of biofilm formation at 2 times MIC relative to control; type: functional; design: scale not given: the % may be the effect or the level left
Acinetobacter baumannii [18] = experiment: Anti- biofilm activity against Acinetobacter baumannii assessed as inhibition of biofilm formation at 4 times MIC relative to control; type: functional; design: scale not given: the % may be the effect or the level left
Acinetobacter baumannii [19] = experiment: Anti- biofilm activity against Acinetobacter baumannii assessed as inhibition of biofilm formation at 6 times MIC relative to control; type: functional; design: scale not given: the % may be the effect or the level left
Klebsiella pneumoniae [20] = experiment: Anti- biofilm activity against Klebsiella pneumoniae assessed as inhibition of biofilm formation at 1 time MIC relative to control; type: functional; design: scale not given: the % may be the effect or the level left
Klebsiella pneumoniae [21] = experiment: Anti- biofilm activity against Klebsiella pneumoniae assessed as inhibition of biofilm formation at 2 times MIC relative to control; type: functional; design: scale not given: the % may be the effect or the level left
Klebsiella pneumoniae [22] = experiment: Anti- biofilm activity against Klebsiella pneumoniae assessed as inhibition of biofilm formation at 4 times MIC relative to control; type: functional; design: scale not given: the % may be the effect or the level left
Klebsiella pneumoniae [23] = experiment: Anti- biofilm activity against Klebsiella pneumoniae assessed as inhibition of biofilm formation at 6 times MIC relative to control; type: functional; design: scale not given: the % may be the effect or the level left
Acinetobacter baumannii [24] = experiment: Anti- biofilm activity against Acinetobacter baumannii assessed as biofilm viability at 1 time MIC relative to control; type: functional
Acinetobacter baumannii [25] = experiment: Anti- biofilm activity against Acinetobacter baumannii assessed as biofilm viability at 2 times MIC relative to control; type: functional
Acinetobacter baumannii [26] = experiment: Anti- biofilm activity against Acinetobacter baumannii assessed as biofilm viability at 4 times MIC relative to control; type: functional
Acinetobacter baumannii [27] = experiment: Anti- biofilm activity against Acinetobacter baumannii assessed as biofilm viability at 6 times MIC relative to control; type: functional
Klebsiella pneumoniae [28] = experiment: Anti- biofilm activity against Klebsiella pneumoniae assessed as biofilm viability at 1 time MIC relative to control; type: functional
Klebsiella pneumoniae [29] = experiment: Anti- biofilm activity against Klebsiella pneumoniae assessed as biofilm viability at 2 times MIC relative to control; type: functional
Klebsiella pneumoniae [30] = experiment: Anti- biofilm activity against Klebsiella pneumoniae assessed as biofilm viability at 4 times MIC relative to control; type: functional
Klebsiella pneumoniae [31] = experiment: Anti- biofilm activity against Klebsiella pneumoniae assessed as biofilm viability at 6 times MIC relative to control; type: functional
Erythrocyte = experiment: Hemolytic activity in human RBC assessed as hemolysis at 512 ug/ml; type: toxicity, cell-based; details: dose 512 µg/ml
[32] = Cytotoxicity against human HepG2 cells assessed as viable cells upto 40 ug/ml relative to control; type: toxicity, cell-based; details: up to 40 µg/mL, read-out: Activity
[33] = Cytotoxicity against human endothelial cells assessed as viable cells upto 40 ug/ml relative to control; type: toxicity, cell-based, Endothelial cell; details: up to 40 µg/mL, read-out: Activity
Cell membrane [34] = experiment: Induction of cytoplasmic membrane depolarization in Acinetobacter baumannii assessed as increase in fluorescence intensity at 0.5 to 4 times MIC by DiSC35 dye based fluorescence method; details: DDE = dose-dependent effect
Cell membrane [35] = experiment: Induction of cytoplasmic membrane depolarization in Klebsiella pneumoniae assessed as increase in fluorescence intensity at 0.5 to 4 times MIC by DiSC35 dye based fluorescence method; details: DDE = dose-dependent effect
Cell membrane [36] = experiment: Induction of outer membrane permeabilization in Acinetobacter baumannii assessed as increase in fluorescence intensity at 4 times MIC by NPN-dye based fluorescence analysis; type: subcellular
Cell membrane [37] = experiment: Induction of outer membrane permeabilization in Klebsiella pneumoniae assessed as increase in NPN fluorescence at 4 times MIC by NPN-dye based fluorescence analysis; type: subcellular
Cell membrane [38] = experiment: Induction of inner membrane damage in Acinetobacter baumannii assessed as disruption of membrane integrity at 0.25 to 2 ug/ml by propidium iodide staining based fluorescence analysis; type: subcellular; details: dose 0.25-2 µg/ml
Cell membrane [39] = experiment: Induction of inner membrane damage in Klebsiella pneumoniae assessed as disruption of membrane integrity at 0.25 to 2 ug/ml by propidium iodide staining based fluorescence analysis; type: subcellular; details: dose 0.25-2 µg/ml
Klebsiella pneumoniae [40] = experiment: Induction of morphological changes in Klebsiella pneumoniae assessed as appearance of broken cell membrane at 2 times MIC for 4 hrs by SEM analysis; type: functional, organism-based
Klebsiella pneumoniae [41] = experiment: Induction of morphological changes in Klebsiella pneumoniae assessed as shrunken cell membrane at 2 times MIC for 4 hrs by SEM analysis; type: functional, organism-based
Klebsiella pneumoniae [42] = experiment: Induction of morphological changes in Klebsiella pneumoniae assessed as membrane rupture at 2 times MIC for 4 hrs by TEM analysis; type: functional, organism-based
Klebsiella pneumoniae [43] = experiment: Induction of morphological changes in Klebsiella pneumoniae assessed as cytoplasmic sparsity at 2 times MIC for 4 hrs by TEM analysis; type: functional, organism-based
Klebsiella pneumoniae [44] = experiment: Induction of morphological changes in Klebsiella pneumoniae assessed as cell lysis at 2 times MIC for 4 hrs by TEM analysis; type: functional, organism-based
Acinetobacter baumannii [45] = experiment: Induction of ROS generation in Acinetobacter baumannii assessed as ROS accumulation at 1 to 8 times MIC by DCFH-DA dye based fluorescence assay; type: functional, organism-based; details: DDE = dose-dependent effect
Klebsiella pneumoniae [46] = experiment: Induction of ROS generation in Klebsiella pneumoniae assessed as ROS accumulation at 1 to 8 times MIC by DCFH-DA dye based fluorescence assay; type: functional, organism-based; details: DDE = dose-dependent effect
Acinetobacter baumannii [47] = experiment: Antioxidant activity in Acinetobacter baumannii assessed as loss of GSH activity at 1 to 8 times MIC; type: functional, organism-based
Klebsiella pneumoniae [48] = experiment: Antioxidant activity in Klebsiella pneumoniae assessed as loss of GSH activity at 1 to 8 times MIC; type: functional, organism-based
Calf thymus DNA [49] = experiment: Binding affinity to calf thymus DNA assessed as assessed as compound-DNA complex formation by measuring red shift by UV-visible absorption spectrophotometric method; type: nucleic-acid assay; details: Bos taurus
Cell membrane [50] = experiment: Induction of cytoplasmic membrane depolarization in Acinetobacter baumannii assessed as increase in fluorescence intensity at 0.5 to 4 times MIC and measured up to 100 mins by DiSC35 dye based fluorescence method; type: subcellular; details: TDE = time-dependent effect
Cell membrane [51] = experiment: Induction of cytoplasmic membrane depolarization in Klebsiella pneumoniae assessed as increase in fluorescence intensity at 0.5 to 4 times MIC and measured up to 100 mins by DiSC35 dye based fluorescence method; type: subcellular; details: TDE = time-dependent effect
Acinetobacter baumannii [52] = experiment: Bactericidal activity against Acinetobacter baumannii assessed as fold increase in MIC value after 16 passages by two fold serial dilution method; type: functional
Klebsiella pneumoniae [53] = experiment: Bactericidal activity against Klebsiella pneumoniae assessed as fold increase in MIC value after 16 passages by two fold serial dilution method; type: functional

CCCCc1nc(Cl)c(C2NC(=O)NC(CN(c3cc(C)no3)S(=O)(=O)c3ccc(N)cc3)=C2C(=O)OCC)[nH]1 (stereo unspecified)
Activity (Acinetobacter baumannii [1]): 21%
Activity (Calf thymus DNA [2]): Active
MIC (Staphylococcus aureus [3]): 4 µg/mL (≈ 6.76 µM)
MIC (Enterococcus faecalis): 16 µg/mL (≈ 27 µM)
MIC (Staphylococcus aureus [4]): 2 µg/mL (≈ 3.38 µM)
MIC (Staphylococcus aureus [5]): 8 µg/mL (≈ 13.5 µM)
MIC (Staphylococcus aureus [6]): 2 µg/mL (≈ 3.38 µM)
MIC (Klebsiella pneumoniae [7]): 0.5 µg/mL (≈ 0.844 µM)
MIC (Escherichia coli [8]): 2 µg/mL (≈ 3.38 µM)
MIC (Escherichia coli [9]): 1 µg/mL (≈ 1.69 µM)
MIC (Pseudomonas aeruginosa [10]): 4 µg/mL (≈ 6.76 µM)
MIC (Pseudomonas aeruginosa [11]): 4 µg/mL (≈ 6.76 µM)
MIC (Acinetobacter baumannii [12]): 0.5 µg/mL (≈ 0.844 µM)
Activity (Acinetobacter baumannii [13]): 2.4 log10CFU/ml
Activity (Klebsiella pneumoniae [14]): 2.5 log10CFU/ml
Activity (Acinetobacter baumannii [15]): 66.7%
Activity (Klebsiella pneumoniae [16]): 66.7%
Activity (Acinetobacter baumannii [17]): 30%
Activity (Acinetobacter baumannii [18]): 58%
Activity (Acinetobacter baumannii [19]): 84%
Activity (Klebsiella pneumoniae [20]): 30%
Activity (Klebsiella pneumoniae [21]): 66%
Activity (Klebsiella pneumoniae [22]): 82%
Activity (Klebsiella pneumoniae [23]): 89%
Activity (Acinetobacter baumannii [24]): 87%
Activity (Acinetobacter baumannii [25]): 83%
Activity (Acinetobacter baumannii [26]): 70%
Activity (Acinetobacter baumannii [27]): 41%
Activity (Klebsiella pneumoniae [28]): 85%
Activity (Klebsiella pneumoniae [29]): 76%
Activity (Klebsiella pneumoniae [30]): 62%
Activity (Klebsiella pneumoniae [31]): 36%
Activity (Erythrocyte): Non-Toxic
viability [32]: > 50%
viability [33]: > 50%
Activity (Cell membrane [34]): Dde
Activity (Cell membrane [35]): Dde
Activity (Cell membrane [36]): Active
Activity (Cell membrane [37]): Active
Activity (Cell membrane [38]): Active
Activity (Cell membrane [39]): Active
Activity (Klebsiella pneumoniae [40]): Active
Activity (Klebsiella pneumoniae [41]): Active
Activity (Klebsiella pneumoniae [42]): Active
Activity (Klebsiella pneumoniae [43]): Active
Activity (Klebsiella pneumoniae [44]): Active
Activity (Acinetobacter baumannii [45]): Dde
Activity (Klebsiella pneumoniae [46]): Dde
Activity (Acinetobacter baumannii [47]): Active
Activity (Klebsiella pneumoniae [48]): Active
Activity (Calf thymus DNA [49]): Active
Activity (Cell membrane [50]): Tde
Activity (Cell membrane [51]): Tde

CCn1cc(C(=O)O)c(=O)c2cc(F)c(N3CCNCC3)cc21 [NORFLOXACIN]
MIC (Staphylococcus aureus [3]): 16 µg/mL (≈ 50.1 µM)
MIC (Enterococcus faecalis): 4 µg/mL (≈ 12.5 µM)
MIC (Staphylococcus aureus [4]): 2 µg/mL (≈ 6.26 µM)
MIC (Staphylococcus aureus [5]): 1 µg/mL (≈ 3.13 µM)
MIC (Staphylococcus aureus [6]): 2 µg/mL (≈ 6.26 µM)
MIC (Klebsiella pneumoniae [7]): 4 µg/mL (≈ 12.5 µM)
MIC (Escherichia coli [8]): 16 µg/mL (≈ 50.1 µM)
MIC (Escherichia coli [9]): 8 µg/mL (≈ 25.1 µM)
MIC (Pseudomonas aeruginosa [10]): 2 µg/mL (≈ 6.26 µM)
MIC (Pseudomonas aeruginosa [11]): 0.5 µg/mL (≈ 1.57 µM)
MIC (Acinetobacter baumannii [12]): 8 µg/mL (≈ 25.1 µM)
fold change (FC) (Acinetobacter baumannii [52]): 32
fold change (FC) (Klebsiella pneumoniae [53]): 32
